Legend:
BMMC [1] = assay: Anti-osteoclastogenesis activity in M-CSF/RANKL-induced C57BL/6J mouse BMMC cells assessed as inhibition of osteoclast differentiation at 10 uM incubated for 7 days by TRAP staining based analysis relative to control; assay type: functional; settings: 168 h, time 7 day
BMMC [2] = assay: Anti-osteoclastogenesis activity in M-CSF/RANKL-induced C57BL/6J mouse BMMC cells assessed as inhibition of osteoclast differentiation at 5 uM incubated for 7 days by TRAP staining based analysis relative to control; assay type: functional; settings: 168 h, time 7 day
[3] = Cytotoxicity against M-CSF induced C57BL/6J mouse BMMC cells assessed as cell viability at 10 uM incubated for 48 hrs by CCK-8 assay relative to control; assay type: toxicity, cell-based; settings: read-out: Activity
BMMC [4] = assay: Anti-osteoclastogenesis activity in M-CSF/RANKL-induced C57BL/6J mouse BMMC cells assessed as inhibition of osteoclast differentiation incubated for 7 days by TRAP staining based analysis; assay type: functional, cell-based; settings: 168 h
BMMC [5] = assay: Anti-osteoclastogenesis activity in M-CSF/RANKL-induced C57BL/6J mouse BMMC cells assessed as inhibition of osteoclast differentiation at 0.1 uM incubated for 7 days by TRAP staining based analysis relative to control; assay type: functional; settings: 168 h, time 7 day
BMMC [6] = assay: Anti-osteoclastogenesis activity in M-CSF/RANKL-induced C57BL/6J mouse BMMC cells assessed as inhibition of osteoclast differentiation at 1 uM incubated for 7 days by TRAP staining based analysis relative to control; assay type: functional; settings: 168 h, time 7 day

Compound	inhibition at 10 µM (BMMC [1]) [%]	inhibition at 5 µM (BMMC [2]) [%]	viability at 48 h, 10 µM [3] [%]	IC50 (BMMC [4]) [nM]	inhibition at 0.1 µM (BMMC [5]) [%]	inhibition at 1 µM (BMMC [6]) [%]
C[C@H](CO)[C@H]1CC[C@H]2[C@@H]3CCC4=CC(=O)CC[C@]4(C)[C@H]3CC[C@]12C	100	78.6	≥ 100	2320		
CNC(=O)[C@@H](C)[C@H]1CC[C@H]2[C@@H]3CC=C4C(C)(C)c5nnsc5C[C@]4(C)[C@H]3CC[C@]12C			≥ 100		49.3	100
C[C@H](CO)[C@H]1CC[C@H]2[C@@H]3CC=C4C(C)(C)c5c(cnn5-c5ccccc5)C[C@]4(C)[C@H]3CC[C@]12C	18.9	0	≥ 100			0
C[C@H](C(=O)Nc1nccs1)[C@H]1CC[C@H]2[C@@H]3CC=C4C(C)(C)c5nnsc5C[C@]4(C)[C@H]3CC[C@]12C			≥ 100		19.2	85.9
C[C@H](CO)[C@H]1CC[C@H]2[C@@H]3CC=C4C(C)(C)c5nc6ccccc6cc5C[C@]4(C)[C@H]3CC[C@]12C	93.9	47.2	≥ 100			37.8
C[C@H](C(=O)Nc1ccc(Br)cc1)[C@H]1CC[C@H]2[C@@H]3CC=C4C(C)(C)c5nnsc5C[C@]4(C)[C@H]3CC[C@]12C			≥ 100		0	65.1
C[C@H](CO)[C@H]1CC[C@H]2[C@@H]3CC=C4C(C)(C)c5nc(N)ncc5C[C@]4(C)[C@H]3CC[C@]12C	100	87.3	≥ 100			25.9
C[C@H](C(=O)Nc1ccc(F)cc1)[C@H]1CC[C@H]2[C@@H]3CC=C4C(C)(C)c5nnsc5C[C@]4(C)[C@H]3CC[C@]12C			≥ 100		47.5	91.9
CCNC(=O)CC[C@@H](C)[C@H]1CC[C@H]2[C@@H]3CC=C4C(C)(C)c5nnsc5C[C@]4(C)[C@H]3CC[C@]12C			≥ 100		46.4	100
C=CCNC(=O)[C@@H](C)[C@H]1CC[C@H]2[C@@H]3CC=C4C(C)(C)c5nnsc5C[C@]4(C)[C@H]3CC[C@]12C			≥ 100		61.1	98.3
C[C@H](C(=O)Nc1ccc(Cl)cc1)[C@H]1CC[C@H]2[C@@H]3CC=C4C(C)(C)c5nnsc5C[C@]4(C)[C@H]3CC[C@]12C			≥ 100		45.2	81
C[C@H](C(=O)O)[C@H]1CC[C@H]2[C@@H]3CC=C4C(C)(C)c5nnsc5C[C@]4(C)[C@H]3CC[C@]12C			≥ 100		45.8	86.8
C[C@H](CO)[C@H]1CC[C@H]2[C@@H]3CC=C4C(C)(C)c5nccnc5C[C@]4(C)[C@H]3CC[C@]12C	67.8	44.9	≥ 100			13.9
CCNC(=O)C[C@@H](C)[C@H]1CC[C@H]2[C@@H]3CC=C4C(C)(C)c5nnsc5C[C@]4(C)[C@H]3CC[C@]12C			≥ 100		21.9	99.5
